Test results: PubChem BioAssay (NCI)
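1) Cells in 96-well plates. 2) Compound, 48 h, 5 concentrations. 3) Linear interpolation between surrounding doses. 4) Unreached endpoint = highest concentration. GI50 = concentration required for 50% inhibition of growth. TGI marks complete inhibition of growth.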

Experiments:
Experiment in all cases: growth of human tumour cells (NCI), 48 h
SW-620 colon = tested on: SW-620 colon
NCI-H460 lung = tested on: NCI-H460 lung
HOP-62 NSCLC = tested on: HOP-62 NSCLC
TK-10 renal = tested on: TK-10 renal
MALME-3M melanoma = tested on: MALME-3M melanoma
A498 renal = tested on: A498 renal
A549 NSCLC = tested on: A549 NSCLC
MCF7 breast = tested on: MCF7 breast
UO-31 renal = tested on: UO-31 renal
HS 578T breast = tested on: HS 578T breast
UACC-62 melanoma = tested on: UACC-62 melanoma
HCC-2998 colon = tested on: HCC-2998 colon
SR leukemia = tested on: SR leukemia
U251 CNS = tested on: U251 CNS
MOLT-4 leukemia = tested on: MOLT-4 leukemia
T-47D breast = tested on: T-47D breast
M14 melanoma = tested on: M14 melanoma
RXF 393 renal = tested on: RXF 393 renal
OVCAR-3 ovarian = tested on: OVCAR-3 ovarian
IGROV1 ovarian = tested on: IGROV1 ovarian
SF-295 CNS = tested on: SF-295 CNS
ACHN renal = tested on: ACHN renal
NCI-H522 lung = tested on: NCI-H522 lung
MDA-MB-468 breast = tested on: MDA-MB-468 breast
DU-145 prostate = tested on: DU-145 prostate
MDA-MB-231 breast = tested on: MDA-MB-231 breast
HOP-92 NSCLC = tested on: HOP-92 NSCLC
HL-60(TB) leukemia = tested on: HL-60(TB) leukemia
SK-MEL-28 melanoma = tested on: SK-MEL-28 melanoma
MDA-MB-435 = tested on: MDA-MB-435
SF-268 CNS = tested on: SF-268 CNS
BT-549 breast = tested on: BT-549 breast
SK-MEL-2 melanoma = tested on: SK-MEL-2 melanoma
SNB-19 CNS = tested on: SNB-19 CNS
SK-OV-3 ovarian = tested on: SK-OV-3 ovarian
UACC-257 melanoma = tested on: UACC-257 melanoma
OVCAR-5 ovarian = tested on: OVCAR-5 ovarian
SK-MEL-5 melanoma = tested on: SK-MEL-5 melanoma
CAKI-1 renal = tested on: CAKI-1 renal
HCT-15 colon = tested on: HCT-15 colon
OVCAR-4 ovarian = tested on: OVCAR-4 ovarian
K-562 leukemia = tested on: K-562 leukemia
SN12C renal = tested on: SN12C renal
PC-3 prostate = tested on: PC-3 prostate
EKVX NSCLC = tested on: EKVX NSCLC
NCI-H226 lung = tested on: NCI-H226 lung
SF-539 CNS = tested on: SF-539 CNS
OVCAR-8 ovarian = tested on: OVCAR-8 ovarian
NCI-H23 lung = tested on: NCI-H23 lung
KM12 colon = tested on: KM12 colon
786-0 renal = tested on: 786-0 renal
HT29 colon = tested on: HT29 colon
COLO 205 colon = tested on: COLO 205 colon
HCT-116 colon = tested on: HCT-116 colon

## Cc1cc(=O)oc2cc(OCCOc3ccc(/C=C/C(=O)Nc4ccccc4N)cc3)ccc12
SW-620 colon
  GI50: 4.16 µM
  TGI: > 100 µM
NCI-H460 lung
  GI50: 2.74 µM
  TGI: > 100 µM
HOP-62 NSCLC
  GI50: 8.17 µM
  TGI: > 100 µM
TK-10 renal
  GI50: 9.25 µM
  TGI: > 100 µM
MALME-3M melanoma
  GI50: 3.89 µM
  TGI: > 100 µM
A498 renal
  GI50: 2.74 µM
  TGI: 9.36 µM
A549 NSCLC
  GI50: 4.27 µM
  TGI: > 100 µM
MCF7 breast
  GI50: 1.27 µM
  TGI: > 100 µM
UO-31 renal
  GI50: 1.31 µM
  TGI: > 100 µM
HS 578T breast
  GI50: > 100 µM
  TGI: > 100 µM
UACC-62 melanoma
  GI50: 3.74 µM
  TGI: > 100 µM
HCC-2998 colon
  GI50: 5.47 µM
  TGI: > 100 µM
SR leukemia
  GI50: 5.66 µM
  TGI: > 100 µM
U251 CNS
  GI50: 5.59 µM
  TGI: > 100 µM
MOLT-4 leukemia
  GI50: 0.294 µM
  TGI: 1.34 µM
T-47D breast
  GI50: 1.59 µM
  TGI: > 100 µM
M14 melanoma
  GI50: 9.87 µM
  TGI: > 100 µM
RXF 393 renal
  GI50: 3.64 µM
  TGI: > 100 µM
OVCAR-3 ovarian
  GI50: 4.19 µM
  TGI: > 100 µM
IGROV1 ovarian
  GI50: 2.08 µM
  TGI: > 100 µM
SF-295 CNS
  GI50: 4.8 µM
  TGI: > 100 µM
ACHN renal
  GI50: 5.52 µM
  TGI: > 100 µM
NCI-H522 lung
  GI50: 4 µM
  TGI: > 100 µM
MDA-MB-468 breast
  GI50: 3.41 µM
  TGI: 96.2 µM
DU-145 prostate
  GI50: 6.8 µM
  TGI: > 100 µM
MDA-MB-231 breast
  GI50: 2.55 µM
  TGI: 35.1 µM
HOP-92 NSCLC
  GI50: 3.45 µM
  TGI: > 100 µM
HL-60(TB) leukemia
  GI50: 0.369 µM
  TGI: 2.62 µM
SK-MEL-28 melanoma
  GI50: 5.2 µM
  TGI: > 100 µM
MDA-MB-435
  GI50: 6.69 µM
  TGI: > 100 µM
SF-268 CNS
  GI50: 4.43 µM
  TGI: > 100 µM
BT-549 breast
  GI50: 1.2 µM
  TGI: 4.93 µM
SK-MEL-2 melanoma
  GI50: 5.81 µM
  TGI: > 100 µM
SNB-19 CNS
  GI50: 4.42 µM
  TGI: > 100 µM
SK-OV-3 ovarian
  GI50: 8.39 µM
  TGI: > 100 µM
UACC-257 melanoma
  GI50: 2.87 µM
  TGI: > 100 µM
OVCAR-5 ovarian
  GI50: 6.43 µM
  TGI: > 100 µM
SK-MEL-5 melanoma
  GI50: 1.48 µM
  TGI: 3.2 µM
CAKI-1 renal
  GI50: 4.58 µM
  TGI: > 100 µM
HCT-15 colon
  GI50: 3.17 µM
  TGI: > 100 µM
OVCAR-4 ovarian
  GI50: 4.86 µM
  TGI: > 100 µM
K-562 leukemia
  GI50: 3.01 µM
  TGI: > 100 µM
SN12C renal
  GI50: 2.77 µM
  TGI: > 100 µM
PC-3 prostate
  GI50: 3.1 µM
  TGI: > 100 µM
EKVX NSCLC
  GI50: 6.5 µM
  TGI: > 100 µM
NCI-H226 lung
  GI50: 4.09 µM
  TGI: > 100 µM
SF-539 CNS
  GI50: 2.58 µM
  TGI: > 100 µM
OVCAR-8 ovarian
  GI50: 3.99 µM
  TGI: > 100 µM
NCI-H23 lung
  GI50: 6.05 µM
  TGI: > 100 µM
KM12 colon
  GI50: 5.12 µM
  TGI: > 100 µM
786-0 renal
  GI50: 3.75 µM
  TGI: > 100 µM
HT29 colon
  GI50: 4.45 µM
  TGI: > 100 µM
COLO 205 colon
  GI50: 3.68 µM
  TGI: > 100 µM
HCT-116 colon
  GI50: 3.31 µM
  TGI: > 100 µM
